In PubChem BioAssay AID248 (DTP/NCI, 2004):
Values joined by “and” are separate entries in the source; they are usually repeats but may differ in a detail not shown here. Identical values can stand only once. Toxic doses and inconclusive results are not listed. No stated cut-off is given here; in the data, active means T/C of 150% or more; inactive means T/C below 125%.

System: L1210 leukemia ip in BDF1 mice, survival T/C
Assay: NCI In Vivo Anticancer Drug Screen. Data for tumor model L1210 Leukemia (intraperitoneal) in B6D2F1 (BDF1) mice
Conditions: endpoint: mean survival time, higher = longer survival
In short: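 Survival endpoint. Drug-treated group vs vehicle group, expressed as T divided by C. Tumor passaged by transplantation.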

[1] = dose: 100.0 mg/kg/injection, schedule: Q01DX009 (ip), vehicle: saline with Tween-80
[2] = dose: 200.0 mg/kg/injection, schedule: Q01DX009 (ip), vehicle: saline with Tween-80
[3] = dose: 400.0 mg/kg/injection, schedule: Q01DX009 (ip), vehicle: saline with Tween-80
[4] = dose: 100.0 mg/kg/injection, schedule: Q01DX001 (ip), vehicle: Klucel (hydroxypropylcellulose) (HPC)
[5] = dose: 200.0 mg/kg/injection, schedule: Q01DX001 (ip), vehicle: Klucel (hydroxypropylcellulose) (HPC)
[6] = dose: 100.0 mg/kg/injection, schedule: Q04DX003 (ip), vehicle: saline with Tween-80
[7] = dose: 200.0 mg/kg/injection, schedule: Q04DX003 (ip), vehicle: saline with Tween-80
[8] = dose: 400.0 mg/kg/injection, schedule: Q04DX003 (ip), vehicle: saline with Tween-80
[9] = dose: 100.0 mg/kg/injection, schedule: Q01DX001 (ip), vehicle: carboxymethylcellulose (CMC)
[10] = dose: 200.0 mg/kg/injection, schedule: Q01DX001 (ip), vehicle: carboxymethylcellulose (CMC)
[11] = dose: 400.0 mg/kg/injection, schedule: Q01DX001 (ip), vehicle: carboxymethylcellulose (CMC)
[12] = dose: 100.0 mg/kg/injection, schedule: Q01DX009 (ip), vehicle: saline
[13] = dose: 100.0 mg/kg/injection, schedule: Q04DX003 (ip), vehicle: saline
[14] = dose: 200.0 mg/kg/injection, schedule: Q04DX003 (ip), vehicle: saline

Measured: T/C

CCCCCCCCCCC(=O)CC
inactive: [1] 102 % of control | [2] 104 % of control | [3] 113 % of control

O=C(O)CSC1(SCC(=O)O)CCCCC1
inactive: [4] 103 % of control | [5] 97 % of control | dose: 400.0 mg/kg/injection, schedule: Q01DX001 (ip), vehicle: Klucel (hydroxypropylcellulose) (HPC) 97 % of control

CC(=O)Oc1ccc2ccccc2c1CN(Cc1c(OC(C)=O)ccc2ccccc12)C(C)=O
inactive: dose: 100.0 mg/kg/injection, schedule: Q01DX001 (ip), vehicle: other 96 % of control | dose: 400.0 mg/kg/injection, schedule: Q01DX001 (ip), vehicle: other 93 % of control

CC(C)C1OCCO1
inactive: dose: 50.0 mg/kg/injection, schedule: Q01DX009 (ip), vehicle: acetone 92 % of control | dose: 100.0 mg/kg/injection, schedule: Q01DX009 (ip), vehicle: acetone 101 % of control | dose: 200.0 mg/kg/injection, schedule: Q01DX009 (ip), vehicle: acetone 95 % of control

CN(C)c1ncnc2nsnc12
inactive: [6] 100 % of control

CC1CCN1Cc1ccccc1 (configuration not stated)
inactive: dose: 12.5 mg/kg/injection, schedule: Q04DX003 (ip), vehicle: acetone 98 % of control | dose: 25.0 mg/kg/injection, schedule: Q04DX003 (ip), vehicle: acetone 104 % of control | dose: 50.0 mg/kg/injection, schedule: Q04DX003 (ip), vehicle: acetone 104 % of control | dose: 75.0 mg/kg/injection, schedule: Q01DX009 (ip), vehicle: saline 94 % of control

CC(=O)Oc1ccc(OC(C)=O)c2c1C(=O)CCCC2=O
inactive: [1] 101 % of control | [6] 91 % of control | [2] 93 % of control | [7] 91 % of control | [3] 96 % of control | [8] 96 % of control

C1N2CN3CN1CN(C2)C3 (tested in a mixture with another compound)
inactive: [6] 107 % of control | [7] 103 % of control | [8] 102 % of control

CCNC(=S)Nc1ccc(OCC)cc1
inactive: dose: 100.0 mg/kg/injection, schedule: Q04DX002 (ip), vehicle: saline with Tween-80 89 % of control | dose: 200.0 mg/kg/injection, schedule: Q04DX002 (ip), vehicle: saline with Tween-80 95 % of control | dose: 400.0 mg/kg/injection, schedule: Q04DX002 (ip), vehicle: saline with Tween-80 100 % of control

O=P(NC1CCCCC1)(Oc1ccccc1)Oc1ccccc1
inactive: dose: 50.0 mg/kg/injection, schedule: Q01DX001 (ip), vehicle: carboxymethylcellulose (CMC) 95 % of control | [9] 92 % of control | [6] 102 % of control | [10] 97 % of control | [7] 97 % of control | [11] 97 % of control | [8] 100 % of control

CN(C)c1ccc(C(C#N)C(C#N)c2ccccc2)cc1 (configuration not stated)
inactive: dose: 50.0 mg/kg/injection, schedule: Q01DX001 (ip), vehicle: Klucel (hydroxypropylcellulose) (HPC) 88 % of control | [4] 88 % of control | [5] 88 % of control

S=C(S)N1CCN(C(=S)S)CC1
inactive: dose: 25.0 mg/kg/injection, schedule: Q01DX009 (ip), vehicle: saline 108 % of control | dose: 50.0 mg/kg/injection, schedule: Q01DX009 (ip), vehicle: saline 103 % of control | [12] 92 % of control and 102 % of control | [13] 99 % of control | [14] 97 % of control

CCOc1ccc(/C=N/NC(C)=O)cc1OC
inactive: dose: 50.0 mg/kg/injection, schedule: Q01DX009 (ip), vehicle: saline with Tween-80 95 % of control | [1] 101 % of control

CC[As](=O)(O)CCCc1ccccc1
inactive: dose: 12.5 mg/kg/injection, schedule: Q01DX001 (ip), vehicle: Klucel (hydroxypropylcellulose) (HPC) 106 % of control | dose: 25.0 mg/kg/injection, schedule: Q01DX001 (ip), vehicle: Klucel (hydroxypropylcellulose) (HPC) 109 % of control

CCCCCCC(=O)C(O)C(O)C(=O)CCCCCCCC(=O)O (configuration not stated)
inactive: dose: 100.0 mg/kg/injection, schedule: Q04DX002 (ip), vehicle: other 91 % of control | dose: 200.0 mg/kg/injection, schedule: Q04DX002 (ip), vehicle: other 98 % of control | dose: 400.0 mg/kg/injection, schedule: Q04DX002 (ip), vehicle: other 102 % of control

O=C(O)/C=C/C(=O)N1Cc2cc3ccccc3nc2C1
inactive: dose: 10.0 mg/kg/injection, schedule: Q04DX003 (ip), vehicle: saline 99 % of control | dose: 20.0 mg/kg/injection, schedule: Q04DX003 (ip), vehicle: saline 99 % of control | dose: 40.0 mg/kg/injection, schedule: Q04DX003 (ip), vehicle: saline 105 % of control | dose: 80.0 mg/kg/injection, schedule: Q04DX003 (ip), vehicle: saline 100 % of control | dose: 160.0 mg/kg/injection, schedule: Q04DX003 (ip), vehicle: saline 96 % of control

Cc1ccc[n+](CCC(N)=O)c1
inactive: [12] 92 % of control | [13] 102 % of control | dose: 200.0 mg/kg/injection, schedule: Q01DX009 (ip), vehicle: saline 93 % of control | [14] 102 % of control | dose: 400.0 mg/kg/injection, schedule: Q01DX009 (ip), vehicle: saline 97 % of control | dose: 400.0 mg/kg/injection, schedule: Q04DX003 (ip), vehicle: saline 94 % of control

Oc1ccc(/C=N/N2CCOCC2)c(O)c1
inactive: [9] 100 % of control and 110 % of control | dose: 100.0 mg/kg/injection, schedule: Q01DX009 (ip), vehicle: carboxymethylcellulose (CMC) 97 % of control | dose: 100.0 mg/kg/injection, schedule: Q04DX002 (ip), vehicle: carboxymethylcellulose (CMC) 92 % of control and 89 % of control | dose: 100.0 mg/kg/injection, schedule: Q04DX003 (ip), vehicle: carboxymethylcellulose (CMC) 95 % of control and 103 % of control | [10] 98 % of control and 110 % of control | dose: 200.0 mg/kg/injection, schedule: Q01DX009 (ip), vehicle: carboxymethylcellulose (CMC) 95 % of control | dose: 200.0 mg/kg/injection, schedule: Q04DX002 (ip), vehicle: carboxymethylcellulose (CMC) 96 % of control and 103 % of control | dose: 200.0 mg/kg/injection, schedule: Q04DX003 (ip), vehicle: carboxymethylcellulose (CMC) 95 % of control and 90 % of control | [11] 98 % of control and 110 % of control | dose: 400.0 mg/kg/injection, schedule: Q01DX009 (ip), vehicle: carboxymethylcellulose (CMC) 88 % of control | dose: 400.0 mg/kg/injection, schedule: Q04DX002 (ip), vehicle: carboxymethylcellulose (CMC) 95 % of control and 86 % of control | dose: 400.0 mg/kg/injection, schedule: Q04DX003 (ip), vehicle: carboxymethylcellulose (CMC) 95 % of control and 87 % of control

N=c1c2c(C(N)=O)cn(C3OC(CO)C(O)C3O)c2ncn1O (configuration not stated)
active: dose: 10.0 mg/kg/injection, schedule: Q01DX001 (ip), vehicle: saline 153 % of control | dose: 20.0 mg/kg/injection, schedule: Q01DX001 (ip), vehicle: saline 180 % of control
inactive: dose: 2.5 mg/kg/injection, schedule: Q01DX001 (ip), vehicle: saline with Tween-80 122 % of control | dose: 5.0 mg/kg/injection, schedule: Q01DX001 (ip), vehicle: saline with Tween-80 117 % of control | dose: 10.0 mg/kg/injection, schedule: Q01DX001 (ip), vehicle: saline with Tween-80 123 % of control

CCCCN=Cc1ccccc1
inactive: [1] 114 % of control | [6] 96 % of control | [2] 90 % of control | [7] 87 % of control | [8] 103 % of control

CO[C@H]1/C=C/O[C@@]2(C)Oc3c(C)c(O)c4c(O)c(c(/C=N/N5CCNCC5)c(O)c4c3C2=O)NC(=O)/C(C)=C\C=C\[C@H](C)[C@H](O)[C@@H](C)[C@@H](O)[C@@H](C)C(OC(C)=O)[C@@H]1C (some centres not stated)
inactive: dose: 25.0 mg/kg/injection, schedule: Q01DX001 (ip), vehicle: water 98 % of control | dose: 25.0 mg/kg/injection, schedule: Q01DX009 (ip), vehicle: Klucel (hydroxypropylcellulose) (HPC) 100 % of control | dose: 50.0 mg/kg/injection, schedule: Q01DX001 (ip), vehicle: water 102 % of control | dose: 50.0 mg/kg/injection, schedule: Q01DX009 (ip), vehicle: Klucel (hydroxypropylcellulose) (HPC) 94 % of control | dose: 100.0 mg/kg/injection, schedule: Q01DX001 (ip), vehicle: water 101 % of control | dose: 100.0 mg/kg/injection, schedule: Q01DX009 (ip), vehicle: Klucel (hydroxypropylcellulose) (HPC) 94 % of control | dose: 200.0 mg/kg/injection, schedule: Q01DX001 (ip), vehicle: water 106 % of control | dose: 200.0 mg/kg/injection, schedule: Q01DX009 (ip), vehicle: Klucel (hydroxypropylcellulose) (HPC) 100 % of control | dose: 400.0 mg/kg/injection, schedule: Q01DX001 (ip), vehicle: water 102 % of control
